Measured values as given in the kinase profiling compilation of Christmann-Franck et al. (2016).

Columns and labels:
Experiment in all cases: radiometric filter-binding kinase assay, Kinase HotSpot
Details in all cases: compound 0.5 µM; ATP 10 µM
[1] = molecular target: SRPK2 (human) (UniProt P78362)
[2] = molecular target: FRK (human) (UniProt P42685)
[3] = molecular target: NEK6 (human) (UniProt Q9HC98)
[4] = molecular target: MAP3K14 (human) (UniProt Q99558)
[5] = molecular target: CSNK2A2 (human) (UniProt P19784)
[6] = molecular target: EPHB4 (human) (UniProt P54760)
[7] = molecular target: MAP4K4 (human) (UniProt O95819)
[8] = molecular target: CLK4 (human) (UniProt Q9HAZ1)
[9] = molecular target: MAPK9 (human) (UniProt P45984)
Sequence of MAPK9 (human) (P45984 whole entry, looked up): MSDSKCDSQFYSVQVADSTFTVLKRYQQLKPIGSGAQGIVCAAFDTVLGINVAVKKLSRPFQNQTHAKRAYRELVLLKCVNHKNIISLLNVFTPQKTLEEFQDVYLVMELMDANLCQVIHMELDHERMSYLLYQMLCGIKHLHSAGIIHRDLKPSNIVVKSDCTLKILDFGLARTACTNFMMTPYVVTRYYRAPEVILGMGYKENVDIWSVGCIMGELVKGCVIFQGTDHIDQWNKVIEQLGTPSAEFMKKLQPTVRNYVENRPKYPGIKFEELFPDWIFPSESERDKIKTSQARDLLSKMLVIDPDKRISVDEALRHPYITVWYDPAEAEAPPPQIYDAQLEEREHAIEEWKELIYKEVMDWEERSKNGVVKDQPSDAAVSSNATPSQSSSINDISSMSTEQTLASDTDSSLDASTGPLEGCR

[10] = molecular target: CHEK2 (human) (UniProt O96017)
[11] = molecular target: MUSK (human) (UniProt O15146)
Sequence of MUSK (human) (O15146 whole entry, looked up): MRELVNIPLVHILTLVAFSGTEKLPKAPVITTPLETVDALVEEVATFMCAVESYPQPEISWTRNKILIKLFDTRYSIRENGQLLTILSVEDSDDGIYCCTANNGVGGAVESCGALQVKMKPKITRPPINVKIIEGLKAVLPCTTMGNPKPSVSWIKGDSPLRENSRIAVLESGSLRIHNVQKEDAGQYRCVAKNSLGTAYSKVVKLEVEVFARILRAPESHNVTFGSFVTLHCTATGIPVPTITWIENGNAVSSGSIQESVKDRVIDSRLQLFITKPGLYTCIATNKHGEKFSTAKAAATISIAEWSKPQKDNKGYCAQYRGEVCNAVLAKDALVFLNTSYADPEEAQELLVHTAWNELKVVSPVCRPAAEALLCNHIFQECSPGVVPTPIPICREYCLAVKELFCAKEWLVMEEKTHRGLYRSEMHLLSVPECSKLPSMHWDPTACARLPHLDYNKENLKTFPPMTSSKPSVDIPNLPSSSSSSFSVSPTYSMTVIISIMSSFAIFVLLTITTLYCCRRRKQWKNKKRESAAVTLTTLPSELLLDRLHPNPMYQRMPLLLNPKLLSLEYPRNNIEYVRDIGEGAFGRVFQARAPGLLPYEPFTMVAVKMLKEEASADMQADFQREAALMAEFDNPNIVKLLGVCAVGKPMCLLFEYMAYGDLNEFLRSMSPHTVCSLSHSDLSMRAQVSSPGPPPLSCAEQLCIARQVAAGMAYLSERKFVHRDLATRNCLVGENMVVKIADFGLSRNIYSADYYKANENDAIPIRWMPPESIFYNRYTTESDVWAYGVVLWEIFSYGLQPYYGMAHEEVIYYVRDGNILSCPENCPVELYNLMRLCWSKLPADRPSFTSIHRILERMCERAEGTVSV

[12] = molecular target: MAP2K1 (human) (UniProt Q02750)
[13] = molecular target: CSNK1D (human) (UniProt P48730)
[14] = molecular target: DDR2 (human) (UniProt Q16832)
[15] = molecular target: ULK2 (human) (UniProt Q8IYT8)
[16] = molecular target: PDGFRA (human) (UniProt P16234)
[17] = molecular target: NEK9 (human) (UniProt Q8TD19)
[18] = molecular target: IKBKE (human) (UniProt Q14164)
[19] = molecular target: MAPKAPK5 (human) (UniProt Q8IW41)
[20] = molecular target: HIPK4 (human) (UniProt Q8NE63)
Sequence of HIPK4 (human) (Q8NE63 whole entry, looked up): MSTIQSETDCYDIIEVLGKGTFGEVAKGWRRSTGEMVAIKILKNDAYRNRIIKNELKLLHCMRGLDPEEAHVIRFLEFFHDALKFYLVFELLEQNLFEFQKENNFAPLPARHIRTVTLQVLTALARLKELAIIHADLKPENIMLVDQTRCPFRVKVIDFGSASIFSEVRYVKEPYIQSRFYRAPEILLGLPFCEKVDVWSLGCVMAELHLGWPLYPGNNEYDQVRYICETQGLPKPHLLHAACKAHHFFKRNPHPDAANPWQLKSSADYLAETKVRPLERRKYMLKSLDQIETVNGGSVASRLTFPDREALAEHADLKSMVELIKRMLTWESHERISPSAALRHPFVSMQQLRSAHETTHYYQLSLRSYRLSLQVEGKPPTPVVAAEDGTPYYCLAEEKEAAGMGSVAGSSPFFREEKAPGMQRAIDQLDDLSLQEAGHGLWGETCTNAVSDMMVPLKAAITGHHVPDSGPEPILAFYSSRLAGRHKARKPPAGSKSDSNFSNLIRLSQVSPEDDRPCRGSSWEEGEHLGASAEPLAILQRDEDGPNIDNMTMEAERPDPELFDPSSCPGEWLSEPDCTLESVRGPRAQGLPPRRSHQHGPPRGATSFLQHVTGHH

[21] = molecular target: TGFBR2 (human) (UniProt P37173)
[22] = molecular target: SRMS (human) (UniProt Q9H3Y6)
[23] = molecular target: PRKD1 (human) (UniProt Q15139)
[24] = molecular target: PIM1 (human) (UniProt P11309)
[25] = molecular target: RPS6KA5 KD2 (human) (UniProt O75582)
[26] = molecular target: DAPK2 (human) (UniProt Q9UIK4)
Sequence of DAPK2 (human) (Q9UIK4 whole entry, looked up): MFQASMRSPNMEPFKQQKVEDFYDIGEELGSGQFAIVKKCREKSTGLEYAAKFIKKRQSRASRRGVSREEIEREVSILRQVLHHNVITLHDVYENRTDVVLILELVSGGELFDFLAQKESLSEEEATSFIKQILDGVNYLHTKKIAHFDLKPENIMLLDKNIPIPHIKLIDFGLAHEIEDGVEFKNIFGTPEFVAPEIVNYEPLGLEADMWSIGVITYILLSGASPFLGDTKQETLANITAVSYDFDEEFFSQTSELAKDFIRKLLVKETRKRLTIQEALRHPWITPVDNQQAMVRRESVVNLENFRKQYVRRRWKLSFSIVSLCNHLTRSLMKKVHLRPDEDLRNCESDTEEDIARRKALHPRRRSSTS

[27] = molecular target: MINK1 (human) (UniProt Q8N4C8)
[28] = molecular target: DYRK1A (human) (UniProt Q13627)
[29] = molecular target: PASK (human) (UniProt Q96RG2)
[30] = molecular target: PIM2 (human) (UniProt Q9P1W9)
[31] = molecular target: PAK1 (human) (UniProt Q13153)
[32] = molecular target: ERBB2 (human) (UniProt P04626)
[33] = molecular target: WNK2 (human) (UniProt Q9Y3S1)
[34] = molecular target: BRSK2 (human) (UniProt Q8IWQ3)
Sequence of BRSK2 (human) (Q8IWQ3 whole entry, looked up): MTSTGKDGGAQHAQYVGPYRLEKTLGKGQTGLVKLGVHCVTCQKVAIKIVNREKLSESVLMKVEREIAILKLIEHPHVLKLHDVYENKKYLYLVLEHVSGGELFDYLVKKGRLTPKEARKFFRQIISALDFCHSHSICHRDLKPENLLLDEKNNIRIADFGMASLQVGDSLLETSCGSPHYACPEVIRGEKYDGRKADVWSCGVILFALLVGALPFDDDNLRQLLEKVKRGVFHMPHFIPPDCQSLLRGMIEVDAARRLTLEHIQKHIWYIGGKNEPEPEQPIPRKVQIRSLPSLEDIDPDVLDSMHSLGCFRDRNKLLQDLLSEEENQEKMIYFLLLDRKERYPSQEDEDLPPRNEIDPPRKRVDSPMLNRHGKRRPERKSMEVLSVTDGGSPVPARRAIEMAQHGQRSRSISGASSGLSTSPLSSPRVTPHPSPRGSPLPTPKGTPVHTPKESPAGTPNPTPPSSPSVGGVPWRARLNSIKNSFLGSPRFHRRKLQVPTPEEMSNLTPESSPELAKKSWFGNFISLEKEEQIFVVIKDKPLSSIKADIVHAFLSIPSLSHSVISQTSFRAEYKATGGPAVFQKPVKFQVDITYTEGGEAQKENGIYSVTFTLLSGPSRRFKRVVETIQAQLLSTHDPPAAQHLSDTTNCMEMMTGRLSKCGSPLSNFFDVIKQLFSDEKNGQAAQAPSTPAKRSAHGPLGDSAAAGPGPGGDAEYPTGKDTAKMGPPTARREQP

[35] = molecular target: CDK4 CCND1 (human) (UniProt P24385+P11802)
[36] = molecular target: MERTK (human) (UniProt Q12866)
Sequence of MERTK (human) (Q12866 whole entry, looked up): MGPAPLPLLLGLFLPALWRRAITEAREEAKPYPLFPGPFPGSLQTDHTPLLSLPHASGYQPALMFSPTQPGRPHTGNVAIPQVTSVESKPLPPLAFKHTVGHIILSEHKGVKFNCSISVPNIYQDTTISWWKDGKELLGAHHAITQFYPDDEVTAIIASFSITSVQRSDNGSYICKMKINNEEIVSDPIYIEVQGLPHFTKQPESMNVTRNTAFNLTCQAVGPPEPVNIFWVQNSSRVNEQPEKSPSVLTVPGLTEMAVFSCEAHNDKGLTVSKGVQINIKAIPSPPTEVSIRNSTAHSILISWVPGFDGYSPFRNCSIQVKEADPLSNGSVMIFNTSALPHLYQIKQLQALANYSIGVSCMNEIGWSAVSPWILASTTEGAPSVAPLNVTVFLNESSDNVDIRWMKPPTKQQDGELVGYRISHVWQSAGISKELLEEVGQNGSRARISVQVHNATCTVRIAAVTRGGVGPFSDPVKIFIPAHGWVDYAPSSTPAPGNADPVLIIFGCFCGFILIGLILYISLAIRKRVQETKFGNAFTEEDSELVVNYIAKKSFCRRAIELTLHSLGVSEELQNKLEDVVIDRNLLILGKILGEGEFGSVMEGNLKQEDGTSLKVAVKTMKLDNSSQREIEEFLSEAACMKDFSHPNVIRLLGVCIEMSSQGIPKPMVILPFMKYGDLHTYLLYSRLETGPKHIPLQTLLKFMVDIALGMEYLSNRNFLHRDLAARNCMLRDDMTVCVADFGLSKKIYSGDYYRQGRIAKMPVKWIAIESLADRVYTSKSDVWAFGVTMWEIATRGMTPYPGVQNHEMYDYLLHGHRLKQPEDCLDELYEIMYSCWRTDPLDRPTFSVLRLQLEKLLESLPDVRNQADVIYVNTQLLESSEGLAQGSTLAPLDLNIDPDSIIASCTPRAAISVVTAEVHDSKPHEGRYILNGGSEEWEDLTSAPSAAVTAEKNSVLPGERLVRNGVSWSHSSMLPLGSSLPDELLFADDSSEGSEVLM

[37] = molecular target: EPHA5 (human) (UniProt P54756)
Sequence of EPHA5 (human) (P54756 whole entry, looked up): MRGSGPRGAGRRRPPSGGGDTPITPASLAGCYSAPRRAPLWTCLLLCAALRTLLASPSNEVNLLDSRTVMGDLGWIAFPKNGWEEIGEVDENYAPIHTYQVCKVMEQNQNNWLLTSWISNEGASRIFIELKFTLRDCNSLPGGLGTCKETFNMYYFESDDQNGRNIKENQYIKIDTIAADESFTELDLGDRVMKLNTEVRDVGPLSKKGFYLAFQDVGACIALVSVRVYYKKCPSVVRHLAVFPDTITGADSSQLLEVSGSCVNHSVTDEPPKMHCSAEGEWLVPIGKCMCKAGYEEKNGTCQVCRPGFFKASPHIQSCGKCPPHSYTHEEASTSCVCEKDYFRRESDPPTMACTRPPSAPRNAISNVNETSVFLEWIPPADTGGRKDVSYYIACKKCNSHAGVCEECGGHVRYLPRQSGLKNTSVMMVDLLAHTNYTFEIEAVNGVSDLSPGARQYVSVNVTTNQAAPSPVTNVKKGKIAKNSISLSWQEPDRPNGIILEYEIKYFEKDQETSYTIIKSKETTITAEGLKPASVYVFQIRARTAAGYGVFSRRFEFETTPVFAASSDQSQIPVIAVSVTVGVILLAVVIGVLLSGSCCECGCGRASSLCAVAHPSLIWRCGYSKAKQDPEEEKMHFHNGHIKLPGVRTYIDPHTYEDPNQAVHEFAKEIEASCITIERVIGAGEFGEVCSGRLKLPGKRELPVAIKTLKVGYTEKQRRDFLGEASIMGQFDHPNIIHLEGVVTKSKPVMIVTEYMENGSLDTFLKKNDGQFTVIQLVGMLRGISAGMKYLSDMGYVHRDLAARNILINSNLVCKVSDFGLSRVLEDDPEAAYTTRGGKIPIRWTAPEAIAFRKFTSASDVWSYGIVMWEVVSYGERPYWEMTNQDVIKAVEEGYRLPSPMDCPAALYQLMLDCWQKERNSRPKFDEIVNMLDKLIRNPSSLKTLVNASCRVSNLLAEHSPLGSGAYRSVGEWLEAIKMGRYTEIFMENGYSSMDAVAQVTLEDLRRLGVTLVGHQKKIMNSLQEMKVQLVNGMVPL

[38] = molecular target: BLK (human) (UniProt P51451)
[39] = molecular target: GRK4 (human) (UniProt P32298)
[40] = molecular target: CSF1R (human) (UniProt P07333)
[41] = molecular target: MARK2 (human) (UniProt Q7KZI7)
[42] = molecular target: TSSK2 (human) (UniProt Q96PF2)

CN(C)c1ccc(/C=C2\C(=O)Nc3ccccc32)cc1
residual activity [1]: 100% | residual activity [2]: 102% | residual activity [3]: 96.9% | residual activity [4]: 67.7% | residual activity [5]: 98.6% | residual activity [6]: 97.4% | residual activity [7]: 74.5% | residual activity [8]: 94.1% | residual activity [9]: 103% | residual activity [10]: 91.6% | residual activity [11]: 96.4% | residual activity [12]: 97.8% | residual activity [13]: 69% | residual activity [14]: 103% | residual activity [15]: 97.1% | residual activity [16]: 79.9% | residual activity [17]: 99.8% | residual activity [18]: 98.2% | residual activity [19]: 98.6% | residual activity [20]: 98.3% | residual activity [21]: 124% | residual activity [22]: 97.9% | residual activity [23]: 100% | residual activity [24]: 101% | residual activity [25]: 98.7% | residual activity [26]: 105% | residual activity [27]: 79% | residual activity [28]: 103% | residual activity [29]: 95% | residual activity [30]: 82.4% | residual activity [31]: 95.7% | residual activity [32]: 91% | residual activity [33]: 104% | residual activity [34]: 93% | residual activity [35]: 97.7% | residual activity [36]: 92.7% | residual activity [37]: 109% | residual activity [38]: 99.2% | residual activity [39]: 103% | residual activity [40]: 77.5% | residual activity [41]: 105% | residual activity [42]: 101%

O=C1Nc2ccc(Br)cc2/C1=C\c1cc2c([nH]1)CCCC2
residual activity [1]: 90.6% | residual activity [2]: 91% | residual activity [3]: 103% | residual activity [4]: 112% | residual activity [6]: 88.6% | residual activity [7]: 6.84% | residual activity [8]: 84.5% | residual activity [9]: 99.4% | residual activity [10]: 68.2% | residual activity [11]: 88.6% | residual activity [12]: 84.8% | residual activity [13]: 72.4% | residual activity [14]: 101% | residual activity [15]: 114% | residual activity [16]: 76.2% | residual activity [17]: 85.6% | residual activity [18]: 89.5% | residual activity [19]: 90.6% | residual activity [20]: 104% | residual activity [21]: 101% | residual activity [22]: 104% | residual activity [23]: 93.8% | residual activity [24]: 101% | residual activity [25]: 90.3% | residual activity [26]: 102% | residual activity [27]: 26.4% | residual activity [28]: 87.1% | residual activity [29]: 98.9% | residual activity [30]: 100% | residual activity [31]: 95.7% | residual activity [32]: 115% | residual activity [33]: 101% | residual activity [34]: 93.8% | residual activity [35]: 97.9% | residual activity [36]: 81.2% | residual activity [37]: 91.3% | residual activity [38]: 74.4% | residual activity [39]: 101% | residual activity [40]: 49.7% | residual activity [41]: 77% | residual activity [42]: 89.8%

CN(C)S(=O)(=O)c1ccc2c(c1)/C(=C/c1cc3c([nH]1)CCCC3)C(=O)N2
residual activity [1]: 50.3% | residual activity [2]: 86% | residual activity [3]: 90.7% | residual activity [4]: 94.6% | residual activity [5]: 92.1% | residual activity [6]: 85.8% | residual activity [7]: 46.1% | residual activity [8]: 50.7% | residual activity [9]: 104% | residual activity [10]: 46.1% | residual activity [11]: 82.8% | residual activity [12]: 88.7% | residual activity [13]: 99.7% | residual activity [15]: 26.3% | residual activity [16]: 93.7% | residual activity [17]: 93.2% | residual activity [18]: 87.9% | residual activity [19]: 99.8% | residual activity [20]: 98.8% | residual activity [21]: 129% | residual activity [22]: 104% | residual activity [23]: 102% | residual activity [24]: 101% | residual activity [25]: 106% | residual activity [26]: 93.5% | residual activity [27]: 83.8% | residual activity [28]: 81.1% | residual activity [29]: 95.6% | residual activity [30]: 108% | residual activity [31]: 96.1% | residual activity [32]: 101% | residual activity [33]: 101% | residual activity [34]: 48.7% | residual activity [35]: 107% | residual activity [36]: 20.9% | residual activity [37]: 85.1% | residual activity [38]: 13.9% | residual activity [39]: 79.8% | residual activity [40]: 37.2% | residual activity [41]: 61.7% | residual activity [42]: 91.8%

CC(C)(C)c1cc(C=C(C#N)C#N)cc(Br)c1O
residual activity [1]: 109% | residual activity [2]: 99.3% | residual activity [3]: 111% | residual activity [4]: 97.3% | residual activity [5]: 94.5% | residual activity [7]: 96.2% | residual activity [8]: 88.6% | residual activity [9]: 103% | residual activity [10]: 104% | residual activity [11]: 103% | residual activity [12]: 90.8% | residual activity [13]: 85.5% | residual activity [14]: 105% | residual activity [15]: 103% | residual activity [16]: 95.4% | residual activity [17]: 103% | residual activity [18]: 86.8% | residual activity [19]: 97.4% | residual activity [20]: 103% | residual activity [21]: 93.8% | residual activity [22]: 98.4% | residual activity [23]: 100% | residual activity [24]: 94.7% | residual activity [25]: 108% | residual activity [26]: 108% | residual activity [27]: 111% | residual activity [28]: 95.4% | residual activity [29]: 96.7% | residual activity [30]: 115% | residual activity [31]: 89.9% | residual activity [32]: 95.7% | residual activity [33]: 126% | residual activity [34]: 94.5% | residual activity [35]: 115% | residual activity [36]: 97.3% | residual activity [37]: 106% | residual activity [38]: 97.9% | residual activity [39]: 101% | residual activity [40]: 96.8% | residual activity [41]: 81.6% | residual activity [42]: 96.6%
